Experimental data: ChEMBL document CHEMBL5321200, “Discovery of the GSH responsive "Y-PROTACs" targeting ALK and CDK4/6 as a potential treatment for cancer” (Eur J Med Chem, 2023)
Active and inactive are the calls of the source. The rule behind the calls is not given here.

Key:
NCI-H3122 [1] = assay: Cell cycle arrest in human NCI-H3122 cells assessed as accumulation of cells at G2/M phase at 1.25 uM incubated for 24 hrs by propidium iodide staining based flow cytometric analysis (reference value: 18.55%); type: functional
NCI-H3122 [2] = assay: Induction of apoptosis in human NCI-H3122 cells assessed as viable cells at 2.5 uM incubated for 48 hrs by Annexin V-FITC/propidium iodide staining based flow cytometric analysis (reference value: 94.19%); type: functional; settings: read-out: Activity
NCI-H3122 [3] = assay: Induction of apoptosis in human NCI-H3122 cells assessed as early apoptotic cells at 0.312 uM incubated for 48 hrs by Annexin V-FITC/propidium iodide staining based flow cytometric analysis (reference value: 0.50%); type: functional
NCI-H3122 [4] = assay: Antiproliferative activity against human NCI-H3122 cells assessed as inhibition of cell growth pretreated with GSH followed by compound addition and incubated for 3 to 5 days by MTT assay; type: functional, cell-based
NCI-H3122 [5] = assay: Cell cycle arrest in human NCI-H3122 cells assessed as accumulation of cells at S phase at 1.25 uM incubated for 24 hrs by propidium iodide staining based flow cytometric analysis (reference value: 34.86%); type: functional
NCI-H2228 [6] = assay: Antiproliferative activity against human NCI-H2228 cells assessed as inhibition of cell growth pretreated with GSH followed by compound addition and incubated for 3 to 5 days by MTT assay; type: functional, cell-based
NCI-H3122 [7] = assay: Induction of apoptosis in human NCI-H3122 cells assessed as viable cells at 0.312 uM incubated for 48 hrs by Annexin V-FITC/propidium iodide staining based flow cytometric analysis (reference value: 94.19%); type: functional; settings: read-out: Activity
NCI-H1299 [8] = assay: Antiproliferative activity against human NCI-H1299 cells assessed as inhibition of cell growth pretreated with GSH followed by compound addition and incubated for 3 to 5 days by MTT assay; type: functional, cell-based
NCI-H3122 [9] = assay: Induction of apoptosis in human NCI-H3122 cells assessed as necrotic cells at 0.625 uM incubated for 48 hrs by Annexin V-FITC/propidium iodide staining based flow cytometric analysis (reference value: 3.53%); type: functional
NCI-H3122 [10] = assay: Cell cycle arrest in human NCI-H3122 cells assessed as accumulation of cells at G0/G1 phase at 0.312 uM incubated for 24 hrs by propidium iodide staining based flow cytometric analysis (reference value: 45.91%); type: functional
NCI-H3122 [11] = assay: Cell cycle arrest in human NCI-H3122 cells assessed as accumulation of cells at G0/G1 phase at 0.625 uM incubated for 24 hrs by propidium iodide staining based flow cytometric analysis (reference value: 45.91%); type: functional
NCI-H3122 [12] = assay: Induction of apoptosis in human NCI-H3122 cells assessed as necrotic cells at 0.312 uM incubated for 48 hrs by Annexin V-FITC/propidium iodide staining based flow cytometric analysis (reference value: 3.53%); type: functional
NCI-H1299 [13] = assay: Antiproliferative activity against human NCI-H1299 cells assessed as inhibition of cell growth incubated for 3 to 5 days by MTT assay; type: functional, cell-based
NCI-H3122 [14] = assay: Cell cycle arrest in human NCI-H3122 cells assessed as accumulation of cells at S phase at 0.312 uM incubated for 24 hrs by propidium iodide staining based flow cytometric analysis (reference value: 34.86%); type: functional
NCI-H3122 [15] = assay: Cell cycle arrest in human NCI-H3122 cells assessed as accumulation of cells at S phase at 0.625 uM incubated for 24 hrs by propidium iodide staining based flow cytometric analysis (reference value: 34.86%); type: functional
NCI-H3122 [16] = assay: Induction of apoptosis in human NCI-H3122 cells assessed as total apoptotic cells at 2.5 uM incubated for 48 hrs by Annexin V-FITC/propidium iodide staining based flow cytometric analysis relative to control; type: functional
NCI-H3122 [17] = assay: Induction of apoptosis in human NCI-H3122 cells assessed as early apoptotic cells at 1.25 uM incubated for 48 hrs by Annexin V-FITC/propidium iodide staining based flow cytometric analysis (reference value: 0.50%); type: functional
NCI-H3122 [18] = assay: Induction of apoptosis in human NCI-H3122 cells assessed as early apoptotic cells at 0.625 uM incubated for 48 hrs by Annexin V-FITC/propidium iodide staining based flow cytometric analysis (reference value: 0.50%); type: functional
NCI-H3122 [19] = assay: Induction of apoptosis in human NCI-H3122 cells assessed as late apoptotic cells at 0.312 uM incubated for 48 hrs by Annexin V-FITC/propidium iodide staining based flow cytometric analysis (reference value: 1.73%); type: functional
NCI-H3122 [20] = assay: Induction of apoptosis in human NCI-H3122 cells assessed as early apoptotic cells at 2.5 uM incubated for 48 hrs by Annexin V-FITC/propidium iodide staining based flow cytometric analysis (reference value: 0.50%); type: functional
NCI-H3122 [21] = assay: Induction of apoptosis in human NCI-H3122 cells assessed as late apoptotic cells at 1.25 uM incubated for 48 hrs by Annexin V-FITC/propidium iodide staining based flow cytometric analysis (reference value: 1.73%); type: functional
NCI-H2228 [22] = assay: Antiproliferative activity against human NCI-H2228 cells assessed as inhibition of cell growth incubated for 3 to 5 days by MTT assay; type: functional, cell-based
NCI-H3122 [23] = assay: Cell cycle arrest in human NCI-H3122 cells assessed as accumulation of cells at G2/M phase at 0.312 uM incubated for 24 hrs by propidium iodide staining based flow cytometric analysis (reference value: 18.55%); type: functional
NCI-H3122 [24] = assay: Cell cycle arrest in human NCI-H3122 cells assessed as accumulation of cells at G0/G1 phase at 2.5 uM incubated for 24 hrs by propidium iodide staining based flow cytometric analysis (reference value: 45.91%); type: functional
NCI-H3122 [25] = assay: Induction of apoptosis in human NCI-H3122 cells assessed as necrotic cells at 2.5 uM incubated for 48 hrs by Annexin V-FITC/propidium iodide staining based flow cytometric analysis (reference value: 3.53%); type: functional
NCI-H3122 [26] = assay: Cell cycle arrest in human NCI-H3122 cells assessed as accumulation of cells at G0/G1 phase at 1.25 uM incubated for 24 hrs by propidium iodide staining based flow cytometric analysis (reference value: 45.91%); type: functional
NCI-H3122 [27] = assay: Induction of apoptosis in human NCI-H3122 cells assessed as late apoptotic cells at 0.625 uM incubated for 48 hrs by Annexin V-FITC/propidium iodide staining based flow cytometric analysis (reference value: 1.73%); type: functional
[28] = target: Protein cereblon/Cyclin-dependent kinase 6 (Homo sapiens) (UniProt Q00534+Q96SW2); assay: PROTAC activity at CRBN/CDK6 in human NCI-H3122 cells assessed as reduction in CDK6 protein level at 1 uM incubated for 24 hrs by Western blot analysis; type: cell-based
[29] = Cytotoxicity against human L02 cells assessed as inhibition of cell growth pretreated with GSH followed by compound addition and incubated for 3 to 5 days by MTT assay; type: toxicity, cell-based
NCI-H3122 [30] = assay: Cell cycle arrest in human NCI-H3122 cells assessed as accumulation of cells at S phase at 2.5 uM incubated for 24 hrs by propidium iodide staining based flow cytometric analysis (reference value: 34.86%); type: functional
[31] = Cytotoxicity against human L02 cells assessed as inhibition of cell growth incubated for 3 to 5 days by MTT assay; type: toxicity, cell-based
NCI-H3122 [32] = assay: Cell cycle arrest in human NCI-H3122 cells assessed as accumulation of cells at G2/M phase at 0.625 uM incubated for 24 hrs by propidium iodide staining based flow cytometric analysis (reference value: 18.55%); type: functional
NCI-H3122 [33] = assay: Induction of apoptosis in human NCI-H3122 cells assessed as necrotic cells at 1.25 uM incubated for 48 hrs by Annexin V-FITC/propidium iodide staining based flow cytometric analysis (reference value: 3.53%); type: functional
NCI-H3122 [34] = assay: Induction of apoptosis in human NCI-H3122 cells assessed as viable cells at 1.25 uM incubated for 48 hrs by Annexin V-FITC/propidium iodide staining based flow cytometric analysis (reference value: 94.19%); type: functional; settings: read-out: Activity
NCI-H3122 [35] = assay: Induction of apoptosis in human NCI-H3122 cells assessed as viable cells at 0.625 uM incubated for 48 hrs by Annexin V-FITC/propidium iodide staining based flow cytometric analysis (reference value: 94.19%); type: functional; settings: read-out: Activity
NCI-H3122 [36] = assay: Cell cycle arrest in human NCI-H3122 cells assessed as accumulation of cells at G2/M phase at 2.5 uM incubated for 24 hrs by propidium iodide staining based flow cytometric analysis (reference value: 18.55%); type: functional
NCI-H3122 [37] = assay: Induction of apoptosis in human NCI-H3122 cells assessed as late apoptotic cells at 2.5 uM incubated for 48 hrs by Annexin V-FITC/propidium iodide staining based flow cytometric analysis (reference value: 1.73%); type: functional
NCI-H3122 [38] = assay: Antiproliferative activity against human NCI-H3122 cells assessed as inhibition of cell growth incubated for 3 to 5 days by MTT assay; type: functional, cell-based

Sequence of Protein cereblon/Cyclin-dependent kinase 6 (Homo sapiens) (Q00534 whole entry, looked up): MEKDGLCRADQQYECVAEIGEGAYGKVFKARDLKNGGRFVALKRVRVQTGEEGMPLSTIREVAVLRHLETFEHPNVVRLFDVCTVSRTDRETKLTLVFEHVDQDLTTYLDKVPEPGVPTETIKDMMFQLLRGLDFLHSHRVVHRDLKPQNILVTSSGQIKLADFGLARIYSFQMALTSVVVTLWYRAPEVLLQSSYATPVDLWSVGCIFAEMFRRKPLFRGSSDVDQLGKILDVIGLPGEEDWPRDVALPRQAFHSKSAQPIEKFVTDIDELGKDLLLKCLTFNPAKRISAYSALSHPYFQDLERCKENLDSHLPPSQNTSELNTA
Sequence of Protein cereblon/Cyclin-dependent kinase 6 (Homo sapiens) (Q96SW2 whole entry, looked up): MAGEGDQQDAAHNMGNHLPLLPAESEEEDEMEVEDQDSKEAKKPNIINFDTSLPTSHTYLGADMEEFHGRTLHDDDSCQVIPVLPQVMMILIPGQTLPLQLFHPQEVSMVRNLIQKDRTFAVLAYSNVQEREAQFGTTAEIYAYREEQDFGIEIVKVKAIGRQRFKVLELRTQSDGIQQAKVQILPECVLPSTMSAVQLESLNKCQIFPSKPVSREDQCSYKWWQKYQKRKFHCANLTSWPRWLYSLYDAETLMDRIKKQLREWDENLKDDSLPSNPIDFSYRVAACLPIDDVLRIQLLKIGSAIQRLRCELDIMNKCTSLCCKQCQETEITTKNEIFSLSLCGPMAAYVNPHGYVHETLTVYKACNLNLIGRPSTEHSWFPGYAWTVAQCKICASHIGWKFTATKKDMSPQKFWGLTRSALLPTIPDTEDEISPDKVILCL

## Cc1cc(Nc2ncc(Cl)c(Nc3ccccc3S(=O)(=O)C(C)C)n2)c(OC(C)C)cc1C1CCNCC1 [CERITINIB]
NCI-H3122 [1]
  Activity: 28.18%
NCI-H3122 [2]
  viability at 2.5 µM: 87.4%
NCI-H3122 [3]
  Activity: 0.91%
NCI-H3122 [4]
  IC50: 60 nM
NCI-H3122 [5]
  Activity: 15.21%
NCI-H2228 [6]
  IC50: 590 nM
NCI-H3122 [7]
  viability at 0.312 µM: 91.3%
NCI-H1299 [8]
  IC50: 1620 nM
NCI-H3122 [9]
  Activity: 4.19%
NCI-H3122 [10]
  Activity: 52.82%
NCI-H3122 [11]
  Activity: 57.79%
NCI-H3122 [12]
  Activity: 4.19%
NCI-H1299 [13]
  IC50: 1740 nM
NCI-H3122 [14]
  Activity: 12.62%
NCI-H3122 [15]
  Activity: 14.15%
NCI-H3122 [16]
  Activity: 10.8%
NCI-H3122 [17]
  Activity: 1.99%
NCI-H3122 [18]
  Activity: 1.88%
NCI-H3122 [19]
  Activity: 3.61%
NCI-H3122 [20]
  Activity: 3.86%
NCI-H3122 [21]
  Activity: 6.24%
NCI-H2228 [22]
  IC50: 580 nM
NCI-H3122 [23]
  Activity: 33.92%
NCI-H3122 [24]
  Activity: 60.69%
NCI-H3122 [25]
  Activity: 1.93%
NCI-H3122 [26]
  Activity: 55.92%
NCI-H3122 [27]
  Activity: 5.87%
[28]
  Activity: inactive
[29]
  IC50: 1030 nM
NCI-H3122 [30]
  Activity: 14.93%
[31]
  IC50: 3510 nM
NCI-H3122 [32]
  Activity: 27.27%
NCI-H3122 [33]
  Activity: 4.45%
NCI-H3122 [34]
  viability at 1.25 µM: 87.3%
NCI-H3122 [35]
  viability at 0.625 µM: 88.1%
NCI-H3122 [36]
  Activity: 24.08%
NCI-H3122 [37]
  Activity: 6.94%
NCI-H3122 [38]
  IC50: 60 nM
